Results published in EP4700025A1, “AMIDE COMPOUND, PHARMACEUTICAL COMPOSITION COMPRISING SAME, AND USE THEREOF” (Suzhou Genhouse Bio Co., Ltd., priority 2023, dated 2024).

Key:
HCT-116 = test: CCK8 proliferation inhibition, HCT-116; format: cell-based; details: Homo sapiens, 192 h, CCK8, 8 days after drug treatment
Description: (§1) The above normally growing cells were digested with a cell trypsinization solution, centrifuged, counted, and seeded into a 96-well plate at an appropriate cell density (2000 cells/well) at 100 µL/well. The next day after cell seeding, the compounds at different concentrations were added to the wells. Three replicate wells were set for each concentration point, and a corresponding DMSO negative control group was also set. CCK8 solution was added to each well 8 days after drug treatment. The plate was incubated at 37 °C for a period of time (OD450 of the vehicle group reached 1.0 or higher) before the absorbance at 450 nm was read using a microplate reader. The inhibition rates were calculated, and the EC50 values were determined by fitting using the GraphPad Prism 7.0 software. Table 2. EC50 values of compounds at cellular level

HCT-116-MTAP^-/- = test: CCK8 proliferation inhibition, HCT-116-MTAP^-/-; format: cell-based; details: Homo sapiens, 192 h; HCT-116-MTAP^-/- (MTAP-deficient); CCK8, 8 days after drug treatment
Description: as §1

SDMA [1] = test: SDMA Inhibition Assay in HCT-116 cells; format: cell-based; details: Homo sapiens, HCT-116, 96 hours
Description: (§2) The next day, the cells were treated with the compounds at different concentrations (with an initial concentration of 10 µM, 5-fold dilution, 9 concentration gradients). After 96 hours, the culture medium was pipetted out and the cells were washed 2 times with 100 µL of PBS. The cells were then fixed with 4% paraformaldehyde and incubated at room temperature for 20 min. The fixative solution was discarded, and the cells were washed with PBS. 150 µL of specialized blocking solution (containing 1% Triton-100) was added to each well for blocking at room temperature for 2 hours, and the plate was washed with PBS to remove excess blocking solution. […] The cells were incubated at 4 °C overnight. The next day, the cells were separately washed 2 times with 1× PBST. […] The cells were incubated at room temperature for 2 hours. The cells were washed 2 times with 1× PBST and 1 time with PBS. Fluorescence signals at 700 nm and 800 nm were separately detected using a Li-COR Odyssey two-color near-infrared laser imager. The inhibition rates were calculated, and the EC50 values were determined by fitting using the GraphPad Prism 7.0 software. Table 3. Inhibition of SDMA by test compounds

SDMA [2] = test: SDMA Inhibition Assay in HCT-116-MTAP^-/- cells; format: cell-based; details: Homo sapiens, 96 hours
Description: as §2

SDMA [3] = test: SDMA Inhibition Assay in A549 cells; format: cell-based; details: Homo sapiens, A549, 96 hours
Description: as §2

[4] = Pharmacokinetic assay in mice; format: in vivo, Balb/c mice; details: mouse; for AUC(0-t) / Cmax / AUC(0-inf) / C0 / MRT inf / Vd / Tmax: male, Balb/c, plasma; for MRT inf: read-out: MRT(0-∞); for Vd: read-out: Vz; for F: PO 10mpk vs IV 2mpk
Description: Eighteen male Balb/c mice aged 6 to 8 weeks were randomly divided into 2 groups (IV group and PO group). The corresponding compounds were administered to the animals in the IV group by tail intravenous injection at 2 mg/kg, and the corresponding compounds were administered to the animals in the PO group by oral gavage at 10 mg/kg or 100 mg/kg. The animals in the IV group were allowed free access to food and water, and the animals in the PO group were fasted overnight before administration and were fed 4 h after administration. Throughout the experiment, the animals were allowed free access to water. Plasma samples were separately collected at 0.083 h (only group IV), 0.25 h, 0.5 h, 1 h, 2 h, 4 h, 8 h, and 24 h after administration. About 100 µL of blood was collected from the orbit of the animal, placed into a 1.5 mL anticoagulation centrifuge tube, and centrifuged at 8000 rpm and 4 °C for 10 min. The upper plasma sample was transferred to an EP tube. The plasma samples were stored in a refrigerator at -80 °C until sample analysis. Pharmacokinetic parameters of the drug were calculated based on the drug concentration-time data, including the peak concentration Cmax, peak time Tmax, clearance rate CL, steady state apparent volume of distribution Vss, area under drug-time curve AUC, elimination half-life t1/2, bioavailability, and the like. Data below the 80% lower limit of quantification were excluded from the calculation of pharmacokinetic parameters.

[5] = Pharmacokinetic assay in rats; format: in vivo, SD rats; details: rat; for MRT inf: read-out: MRT(0-∞)
Description: In this experimental example, the pharmacokinetic behavior of the test compounds after administration by intravenous injection (IV) and oral gavage (PO) in SD rats was tested.
On the day of administration, rats were weighed for actual body weight, and the administration volume was calculated. Each compound was tested in two groups with 3 rats in each group; one group was subjected to administration by single intravenous injection, and the other group was subjected to administration by single oral gavage. The whole blood samples were collected via the jugular vein at prescribed time points (0.25 h, 0.5 h, 1 h, 2 h, 4 h, 8 h, and 24 h after administration). After the blood sample collection, the samples were immediately transferred to labeled commercial sample tubes containing K2-EDTA (0.85-1.15 mg), followed by centrifugation (3200× g, 4 °C, 10 min) and plasma collection. The plasma was transferred to a pre-cooled centrifuge tube, frozen in dry ice, and then stored in an ultra-low temperature freezer at -60 °C or lower until the LC-MS/MS analysis was performed.
Plasma concentrations were determined by the LC-MS/MS method. Plasma drug concentration data for the compounds were processed using a non-compartmental model in the WinNonlin Version 6.3 (Pharsight, Mountain View, CA) pharmacokinetic software. The relevant pharmacokinetic parameters were calculated by a linear-log trapezoidal method.

A549 = test: CCK8 proliferation inhibition, A549; format: cell-based; details: Homo sapiens, 192 h, CCK8, 8 days after drug treatment
Description: as §1

Structure (SMILES): CC1OCc2c1c(N)nc1cc(F)c(C(=O)N(Cc3ccc4c(c3)OC(F)(F)O4)C3CC3)cc21 (racemic) [Example I-36]
- EC50 (HCT-116): > 10000 nM
- EC50 (HCT-116-MTAP^-/-): 24.2 nM

Structure (SMILES): Cn1ncc2c(N)nc3cnc(C(=O)N4CCN(C5(C)CC5)CC4c4ccc5c(c4)OC(F)(F)O5)cc3c21 (racemic) [Example I-113]
- EC50 (HCT-116): > 10000 nM
- EC50 (SDMA [1]): 403 nM
- EC50 (SDMA [2]): 4.1 nM
- EC50 (HCT-116-MTAP^-/-): 50.5 nM

Structure (SMILES): Cn1ncc2c(N)nc3ccc(C(=O)N4CCOCC4c4ccc5c(c4)OC(F)(F)O5)cc3c21 (single isomer, unassigned) [I-4 (PEAK1)]
- EC50 (HCT-116): 6410 nM
- EC50 (SDMA [1]): 906 nM
- EC50 (SDMA [2]): 9.1 nM
- EC50 (HCT-116-MTAP^-/-): 47.7 nM
- EC50 (SDMA [3]): 6.1 nM

Structure (SMILES): Nc1nc2cnc(C(=O)N3CCOC[C@@H]3c3ccc(C(F)(F)F)cc3)cc2c2c1COC2 [Control compound B, reference compound]
- AUC(0-t) ([4]; 2 mg/kg, IV 2mpk): 6.9 µM·h
- AUC(0-t) ([4]; 10 mg/kg, PO 10mpk): 26.5 µM·h
- Cmax ([4]; 10 mg/kg, PO 10mpk): 5760 nM

Structure (SMILES): CN(Cc1ccc2c(c1)OC(F)(F)O2)C(=O)c1ccc2nc(N)c3cnn(C)c3c2c1 [Example I-2]
- AUC(0-inf) ([4]; 2 mg/kg, IV 2mpk): 4.11 µM·h
- AUC(0-t) ([4]; 2 mg/kg, IV 2mpk): 3.53 µM·h
- C0 ([4]; 2 mg/kg, IV 2mpk): 1520 nM
- MRT inf ([4]; 2 mg/kg, IV 2mpk): 4 h
- Vd ([4]; 2 mg/kg, IV 2mpk): 4.7 L/kg
- AUC(0-inf) ([4]; 10 mg/kg, PO 10mpk): 18.8 µM·h
- AUC(0-t) ([4]; 10 mg/kg, PO 10mpk): 18.1 µM·h
- Cmax ([4]; 10 mg/kg, PO 10mpk): 2190 nM
- Tmax ([4]; 10 mg/kg, PO 10mpk): 1 h
- MRT inf ([4]; 10 mg/kg, PO 10mpk): 7.1 h
- CLz ([4]; IV 2mpk): 18.3 mL/min/kg
- R_AUC(t/∞) ([4]; IV 2mpk): 85.8%
- t1/2z ([4]; IV 2mpk): 2.8 h
- R_AUC(t/∞) ([4]; PO 10mpk): 96.3%
- t1/2z ([4]; PO 10mpk): 5.5 h
- F [4]: 91.5%
- EC50 (HCT-116): 6740 nM
- EC50 (SDMA [1]): 1010 nM
- EC50 (SDMA [2]): 8.3 nM
- EC50 (HCT-116-MTAP^-/-): 42.6 nM
- EC50 (SDMA [3]): 5.1 nM
- AUC(0-inf) ([5]; SD, plasma, 2 mg/kg, IV 2mpk): 6.91 µM·h
- AUC(0-t) ([5]; SD, plasma, 2 mg/kg, IV 2mpk): 6.42 µM·h
- C0 ([5]; SD, plasma, 2 mg/kg, IV 2mpk): 2340 nM
- MRT inf ([5]; SD, plasma, 2 mg/kg, IV 2mpk): 4.3 h
- Vd ([5]; SD, plasma, 2 mg/kg, IV 2mpk, read-out: Vz): 3.4 L/kg
- AUC(0-inf) ([5]; SD, plasma, 10 mg/kg, PO 10mpk): 17.2 µM·h
- AUC(0-t) ([5]; SD, plasma, 10 mg/kg, PO 10mpk): 14.8 µM·h
- Cmax ([5]; SD, plasma, 10 mg/kg, PO 10mpk): 1680 nM
- Tmax ([5]; SD, plasma, 10 mg/kg, PO 10mpk): 2.3 h
- MRT inf ([5]; SD, plasma, 10 mg/kg, PO 10mpk): 7.2 h
- CLz ([5]; IV 2mpk): 13 mL/min/kg
- R_AUC(t/∞) ([5]; IV 2mpk): 91.6%
- t1/2z ([5]; IV 2mpk): 3.5 h
- R_AUC(t/∞) ([5]; PO 10mpk): 86.6%
- t1/2z ([5]; PO 10mpk): 4.7 h
- F ([5]; PO 10mpk (IV reference 2mpk; 0.2mpk for I-7)): 49.9%

Structure (SMILES): Cn1ncc2c(N)nc3cc(F)c(C(=O)N4CCOCC4c4ccc5c(c4)OC(F)(F)O5)cc3c21 (stereo not drawn) [Example I-3]
- EC50 (HCT-116): 2370 nM
- EC50 (SDMA [1]): 101 nM
- EC50 (SDMA [2]): 0.6 nM
- EC50 (HCT-116-MTAP^-/-): 8.4 nM
- EC50 (SDMA [3]): 2.1 nM

Structure (SMILES): Cn1ncc2c(N)nc3ccc(C(=O)N4CCOCC4c4ccc5c(c4)OC(F)(F)O5)cc3c21 (stereo not drawn) [Example I-4]
- EC50 (HCT-116): > 10000 nM
- EC50 (SDMA [1]): 381 nM
- EC50 (SDMA [2]): 7.4 nM
- EC50 (HCT-116-MTAP^-/-): 27 nM
- EC50 (SDMA [3]): 7 nM

Structure (SMILES): CCN(Cc1ccc2c(c1)OC(F)(F)O2)C(=O)c1ccc2nc(N)c3cnn(C)c3c2c1 [Example I-5]
- AUC(0-inf) ([4]; 2 mg/kg, IV 2mpk): 3.62 µM·h
- AUC(0-t) ([4]; 2 mg/kg, IV 2mpk): 3.32 µM·h
- C0 ([4]; 2 mg/kg, IV 2mpk): 1860 nM
- MRT inf ([4]; 2 mg/kg, IV 2mpk): 2.9 h
- Vd ([4]; 2 mg/kg, IV 2mpk): 4.4 L/kg
- AUC(0-inf) ([4]; 10 mg/kg, PO 10mpk): 12.4 µM·h
- AUC(0-t) ([4]; 10 mg/kg, PO 10mpk): 12.4 µM·h
- Cmax ([4]; 10 mg/kg, PO 10mpk): 1930 nM
- Tmax ([4]; 10 mg/kg, PO 10mpk): 1 h
- MRT inf ([4]; 10 mg/kg, PO 10mpk): 4.8 h
- CLz ([4]; IV 2mpk): 21.7 mL/min/kg
- R_AUC(t/∞) ([4]; IV 2mpk): 91.7%
- t1/2z ([4]; IV 2mpk): 2.4 h
- R_AUC(t/∞) ([4]; PO 10mpk): 99.9%
- t1/2z ([4]; PO 10mpk): 2.4 h
- F [4]: 68.6%
- EC50 (HCT-116): 2360 nM
- EC50 (SDMA [1]): 200 nM
- EC50 (SDMA [2]): 2.1 nM
- EC50 (HCT-116-MTAP^-/-): 4.7 nM
- EC50 (SDMA [3]): 2.6 nM

Structure (SMILES): C[C@@H]1COCC(c2ccc3c(c2)OC(F)(F)O3)N1C(=O)c1cc2c(cc1F)nc(N)c1cnn(C)c12 (stereo partly drawn) [Example I-11]
- EC50 (A549): 2.5 nM
- EC50 (SDMA [2]): 0.4 nM
- EC50 (HCT-116-MTAP^-/-): 0.9 nM
- EC50 (SDMA [3]): 0.3 nM

Structure (SMILES): CC(C)N(Cc1ccc2c(c1)OC(F)(F)O2)C(=O)c1cc2c(cc1F)nc(N)c1cnn(C)c12 [Example I-13]
- EC50 (A549): 10.8 nM
- EC50 (SDMA [2]): 3.5 nM
- EC50 (HCT-116-MTAP^-/-): 3.4 nM
- EC50 (SDMA [3]): 2.1 nM
